According to patent US20260373434A1, “QUICK DISSOLVABLE MICRONEEDLE WITH ENHANCED MECHANICAL STRENGTH, ITS COMPOSITIONS AND METHOD FOR FABRICATION THEREOF” (TRANSFORM SCITECH PRIVATE LIMITED, priority 2023, published 2026):
Where a name gives a salt, the structure may show the parent alone.

What was measured:
[1] = in vitro drug release study (Franz diffusion cell, pH 7.4); format: physicochemical; conditions: pH 7.4, 37 °C
Procedure: • Equipment: Franz diffusion cell shown in FIG. 38. • Dissolution medium: Physiological buffer solution pH (7.4) • Temperature: 37±0.2 °C. • Rotational speed: 100 rpm • Mode of sample analysis for Salbutamol sulphate—HPLC-UV analysis using RP C18 250X 4.6 mm; 5-micron, 100 A column and 87 parts of ammonium acetate buffer (pH 3.0, 20 mM) with sodium hexane sulfonate in combination with 13 parts of acetonitrile as a mobile phase. • Mode of sample analysis for Lorazepam—UV analysis, absorbance 280 nm • Mode of sample analysis for Cetirizine dihydrochloride—UV analysis, absorbance 276 nm • Mode of sample analysis for Ondansetran—UV analysis, absorbance 249 nm
Drug release at early time points was used to check the quick release characteristics. Salbutamol sulphate, Lorazepam and Cetirizine dihydrochloride which are soluble drugs released more than 80% achieving the quick release characteristics. Ondansetran which is a poorly soluble drug released about 30% in 20 minutes. Probably owing to its slow rate of dissolution. All drugs were analysed using appropriate UV/HPLC method as described in EXAMPLE 3. (FIGS. 39, 40, 41, 42, 43, 44)

[2] = drug classification and dissolution in the fabrication solvent; format: physicochemical; conditions: fabrication stage
Procedure: Salbutamol sulphate (Dose per patch 2.5 mg) and Lorazepam (Dose per patch 4 mg) are BCS Class I drugs, Cetirizine dihydrochloride (Dose per patch 5 mg) is BCS class III and Ondansetron Hydrochloride (Dose per patch 16 mg) is BCS Class II. The various drugs were studied for suitability of incorporation into the Dissolving microneedle formulation.

With `Cc1nccn1CC1CCc2c(c3ccccc3n2C)C1=O` (centres unmarked) [Ondansetron Hydrochloride] the Ondansetran released ([1]; batch MN01/02/84, in 20 minutes, UV 249 nm) was “about 30%” and the “dissolution of drug in the aqueous solvent during fabrication” value [2] was “remained dispersed”.
In the case of `CC(C)(C)NCC(O)c1ccc(O)c(CO)c1` (centres unmarked) [Salbutamol sulphate], the Salbutamol sulphate released ([1]; batches MN01/02/64, MN01/02/77/A, MN01/02/77/B, early time points, HPLC-UV) was “more than 80%”.
With `O=C1Nc2ccc(Cl)cc2C(c2ccccc2Cl)=NC1O` (centres unmarked) [Lorazepam] the Lorazepam released ([1]; batch MN01/02/82, early time points, UV 280 nm) was “more than 80%”.
With `O=C(O)COCCN1CCN(C(c2ccccc2)c2ccc(Cl)cc2)CC1` (centres unmarked) [Cetirizine dihydrochloride] the Cetirizine dihydrochloride released ([1]; batch MN01/02/83A, early time points, UV 276 nm) was “more than 80%”.
